Laboratory results taken from patent publication US20250000859A1, “USE OF GCN2 INHIBITORS IN TREATING CANCER” (Alesta Therapeutics BV, priority 2021, published 2025).
Like-named read-outs stand apart in the source and are kept apart here.

Key:
[1] = system: HT29 spheroids; test: Tumor spheroid growth, live-cell imaging (Example C); type: cell-based; conditions: ASS1-low HT29 spheroids, 0-20 μM, up to 120 hours
Description: (§1) The growth of tumor spheroids was evaluated following treatment of cells with Compound 1, Compound 2. Briefly, HT29 or HCT116 cells were seeded at 5,000 cells/well in ultra-low attachment round-bottom 96-well plates, in 100 μL SILAC DMEM Flex media without phenol red, supplemented with 10% fetal bovine serum (FBS), 1 g/L glucose, 2 mM glutamine, 220 μM lysine, and 64 μM arginine. The plates were centrifuged for 10 minutes at 125×g and put in a humidified incubator at 37° C. for 3 days before the onset of the experiment to allow spheroids to form.
(§2) Three days after seeding, 0-20 μM Compound 1, 0-20 μM Compound 2, or […] vehicle control (0.1% DMSO), were added together with the Nuclear-ID Red DNA Stain (1:100,000; ENZO Life Sciences) to detect live cells. Plates were placed in live-cell imaging and analysis platform (e.g., IncuCyte ZOOM®; 15 Essenbio) set up in a humidified incubator at 37° C. and scanned every 4 hours for up to 120 hours, at 10× magnification, to determine the relative spheroid size and cell death. Experiments were performed in quadruplicate and analyzed using live-cell imaging and analysis software (e.g., IncuCyte ZOOM® 2018A software; Essenbio).

[2] = system: HCT116 spheroids; test: as above; type: cell-based; conditions: ASS1-high HCT116 spheroids, 0-20 μM, up to 120 hours
Description: as §1, §2

[3] = system: HCT116 cells; test: EdU incorporation (Example I); type: cell-based; conditions: HCT116 cells (high ASS1), arginine 6.25-100 μM
Description: (§3) EdU incorporation levels of cancer cell lines was evaluated following treatment with compound 1, compound 2, compound 3, or vehicle control (0.1% DMSO). Briefly, HT29 and HCT116 cells were seeded at 2,500 cells/well in 96 well plates in 100 μl SILAC DMEM flex media without phenol red, supplemented with 10% dialyzed fetal bovine serum (dFBS), 1 g/l glucose, 2 mM glutamine, 220 μM Lysine, and various concentrations of arginine (6.25 μM, 12.5 μM, 25 μM, and 100 μM). The cells were put in a humidified incubator at 37° C. for 24 hours. The next day compounds were added to the cells at a concentration of […]. At day 3, cells were incubated with 10 μM EdU for 24 hours. The next day EdU positive cells were labeled using the Click-it reaction cocktail per manufacturing protocol using Amplex UltraRed Dye. Fluorescence was measured using a microplate reader using filter sets appropriate for Amplex™ UntraRed reagent (ex 568 nm and em 585 nm).

[4] = system: HT29 cells; test: EdU incorporation (Example I); type: cell-based; conditions: HT29 cells (low ASS1), arginine 6.25-100 μM
Description: as §3

[5] = system: A498 (ASS1low) cells; test: Relative cell viability, Nuclear-ID Red / Annexin V staining (Example E); type: cell-based; conditions: 16 μM arginine, 4 days
Description: (§4) To assess the effectiveness of Compound 1 and Compound 2: A^498 (ASS1low) and 769-P (ASS1high) cells were seeded at a density of 2000 cells/well in 96-well plates in RPMI medium with 16 μM arginine, 1 g/L glucose, 2 mM L-glutamine, and 10% FCS and allowed to adhere overnight.
(§5) Cells were then treated with increasing amounts of the indicated compounds for 4 days. Afterward, cell viability was determined by staining the nuclei of the living cells with NUCLEAR-IDR Red DNA stain (Enzo Life Sciences) and the apoptotic/death cells with Annexin V CF488A (Biotium) and scanning the plates with an IncuCyte S3 instrument. Viable cells were classified as Nuclear-ID Red high and Annexin V CF488A low and relative viability was expressed as a percentage of the total number of cells/well.

[6] = system: 769-P (ASS1high) cells; test: as above; type: cell-based; conditions: 16 μM arginine, 4 days
Description: as §4, §5

[7] = system: Renca, CT26, MC38, B16F10 tumor cells; test: In vivo tumor models, tumor volume (Example J); design: species or system BALB/c or C57BL/6 mice; conditions: for inhibition in tumor volume compared to control: Compound 1: 30 mg/kg p.o. BID, Compound 2: 20 mg/kg p.o. BID, endpoint day 11-20 depending on model
Description: Effect of GCN2 inhibition on in vivo xenograft tumor models of various ASS1 low cancer models was evaluated following treatment with compound 1, compound 2, or vehicle control. Briefly, 1,000,000 tumor cells with a total volume of 100 μl were injected into the rear flank region of 6-8 week old BALB/c or C57BL/6 female mice. The following tumor cell lines were tested: renica (renal adenocarcinoma), CT26 (colon cancer), MC 38 (colon adenocarcinoma), B16F10 (melanoma) When tumors reached a size of approximately […], mice were treated orally (PBS, 10 μl/g, i.p., twice weekly (BIW); Compound 1: 30 mg/kg, 10 μl/g, p.o., twice daily (BID); or Compound 2: 20 mg/kg, 10 μl/g, p.o., BID). Tumor volumes were measured every 3-4 days. Endpoint measurements as presented were measured at day 20 (Renca), day 14 (CT26), day 17 (MC38), and day 11 (B16F10).

[8] = system: A498 cells; test: Cell viability, ATPlite luminescence (Example H); type: cell-based; conditions: A498 cells (low ASS1)
Description: The viability of cancer cell lines was evaluated following treatment with compound 2. Briefly, 769P and A498 cells were seeded at 100-6,400 cells/well in 96 well plates in 100 μl SILAC DMEM flex media without phenol red, supplemented with 10% dialyzed fetal bovine serum (dFBS), 1 g/l glucose, 2 mM glutamine, 220 μM Lysine, and 64 μM arginine. The cells were put in a humidified incubator at 37° C. for 24 hours. The next day compounds were added at various concentrations. At the end of the experiment, ATPlite 1 Step™ (Perkin Elmer) solution was added to each well and shaken for 2 minutes. After incubation of 10 min in the dark, luminescence was recorded on a Envision Multimode Reader to determine cell viability.

[9] = system: HCT116 cells; test: Growth of colonies/spheroids in soft agar, 5 days (Example G); type: cell-based; conditions: Homo sapiens, HCT-116, 120 h, HCT116 cells (ASS1 high), 64 μM arginine, read-out: IC50, growth inhibition
Description: (§6) The growth of tumor spheroids was evaluated following treatment with Compound 2. Briefly, HT29 cells were seeded at 2,000 cells/well and HCT116 cells were seeded at 1,000 cells/well in ultra-low attachment round bottom 96-well plates in soft agar with 100 μl SILAC DMEM flex media without phenol red, supplemented with 10% Dialyzed fetal bovine serum (dFBS), 1 g/l glucose, 2 mM glutamine, 220 μM Lysine, and 64 μM arginine. Various concentrations of compound 2 (1.37 nM, 4.11 nM, 12.3 nM, 37 nM, 111 nM, 333 nM, and 1000 nM) were added. Plates were placed in a humidified incubator at 37° C. and incubated for 5 days, allowing colonies to form. At endpoint, images were taken by light microscopy (3 images per well) and analyzed using ImageJ software.

[10] = system: HT29 cells; test: as above; type: cell-based; conditions: HT29 cells (ASS1 low), 64 μM arginine, read-out: IC50, growth inhibition
Description: as §6

Row | IC50 [9] | IC50 [10] | IC50 ([10]; Homo sapiens, HT-29, 120 h) | Structure (SMILES) | spheroid growth compared to DMSO-treated spheroids [1] | spheroid growth [2] | EdU labeling [3] | EdU labeling [4] | relative cell viability [5] | relative cell viability [6] | reduction in tumor volume compared to control ([7]; 30 mg/kg p.o. BID, Renca, CT26, MC38, B16F10, FIG. 9A) | inhibition in tumor volume compared to control [7] | cell death (percent viability vs untreated cells) [8]
1 | – | – | – | COc1ncc(Cl)cc1S(=O)(=O)Nc1ccc(F)c(-c2ccc3nc(N)ncc3c2)c1F [Compound 1] | significantly reduces spheroid growth in a dose-dependent manner | does not reduce spheroid growth | have a smaller effect on EdU labeling | cause significantly higher levels of EdU labeling | significantly reduces relative cell viability in a dose-dependent manner | did not significantly relative cell viability | 60-70% | caused a significant inhibition in tumor volume compared to control | –
2 | 1330 nM | 51.4 nM | 52.4 nM | Nc1ncc2cc(-c3c(F)ccc(NS(=O)(=O)c4cc(Cl)ccc4Cl)c3F)ccc2n1 [Compound 2] | significantly reduces spheroid growth in a dose-dependent manner | does not reduce spheroid growth | have a smaller effect on EdU labeling | cause significantly higher levels of EdU labeling | significantly reduces relative cell viability in a dose-dependent manner | did not significantly relative cell viability | – | caused a significant inhibition in tumor volume compared to control | resulted in a significant level of cell death
3 | – | – | – | Nc1ncc(C#Cc2c(F)ccc(NS(=O)(=O)c3cc(Cl)cc(CO)c3Cl)c2F)cn1 [Compound 3] | – | – | have a smaller effect on EdU labeling | cause significantly higher levels of EdU labeling | – | – | – | – | –
